Experimental data taken from patent US11564392B2, “Methods of inactivation of viruses using n-methlyglucamide and its derivatives” (BAYER HEALTHCARE LLC, priority 2017, dated 2023).
Entries after “also recorded” stand apart in the source; their conditions may differ. Like-named read-outs stand apart in the source and are kept apart here.

Assays:
[1] = 25° C.; cited from earlier work
X-MuLV [2] = assay type: cell-based, xenotropic murine leukemia virus; details: for X-MuLV inactivation (FIG. 4): 0.5×, 1×, 2× of the CMC, room temperature; for X-MuLV inactivation (FIG. 4) / X-MuLV inactivation (FIG. 5): within 30 minutes; for X-MuLV inactivation (FIG. 5): 1× and 2× of the CMC
[3] = assay type: physicochemical
Method: Each detergent was obtained as powder from the manufacturer and was appropriately weighed and allowed to dissolve in Milli-Q water. […] The detergents were stored in a dark container in 2-8° C. Table 2 lists the manufacturers of the detergent powders and the in-house preparation which are also detailed in the methods section. […] This occurrence has been observed by others as well and may have to do with the increasing fatty chain length that enhances the hydrophobicity thus decreasing the likelihood of solubility, especially in water (Gaber et al., Burczyk, 2007).

BVDV = assay type: cell-based, bovine viral diarrhea virus; details: for BVDV inactivation: Mega 10 0.2, 0.3, 0.4% (w/v), Mega 9 1.0% (w/v), 2.0° C.
X-MuLV [4] = assay: X-MuLV inactivation in rFVIII by methylglucamides with or without Tw20, TnBP or NaCl, TCID50 assay; assay type: cell-based, xenotropic murine leukemia virus
Method: Methylglucamides were tested with other compounds to determine potential synergistic effects on viral inactivation. […] Then, the titers of each samples or controls were assayed using a TCID50 assay previously described. For each experiment (FIGS. 15, 16 and 17), the controls consisted of rFVIII spiked with X-MuLV with no detergent, and the yielded titers within the expected range of about 6.5 log10 TCID50/ml.

[5] = molecular target: T1, recombinant FVIII (rFVIII) (Homo sapiens, UniProt P00451); assay: Chromogenic assay to assess human Factor VIII activity after detergent incubation; assay type: biochemical; details: 0.3% (w/v)
T1 construct: recombinant human factor VIII (rFVIII) (full length wildtype, Bayer in-house preparation); made in house
T1 sequence (P00451 20-2351): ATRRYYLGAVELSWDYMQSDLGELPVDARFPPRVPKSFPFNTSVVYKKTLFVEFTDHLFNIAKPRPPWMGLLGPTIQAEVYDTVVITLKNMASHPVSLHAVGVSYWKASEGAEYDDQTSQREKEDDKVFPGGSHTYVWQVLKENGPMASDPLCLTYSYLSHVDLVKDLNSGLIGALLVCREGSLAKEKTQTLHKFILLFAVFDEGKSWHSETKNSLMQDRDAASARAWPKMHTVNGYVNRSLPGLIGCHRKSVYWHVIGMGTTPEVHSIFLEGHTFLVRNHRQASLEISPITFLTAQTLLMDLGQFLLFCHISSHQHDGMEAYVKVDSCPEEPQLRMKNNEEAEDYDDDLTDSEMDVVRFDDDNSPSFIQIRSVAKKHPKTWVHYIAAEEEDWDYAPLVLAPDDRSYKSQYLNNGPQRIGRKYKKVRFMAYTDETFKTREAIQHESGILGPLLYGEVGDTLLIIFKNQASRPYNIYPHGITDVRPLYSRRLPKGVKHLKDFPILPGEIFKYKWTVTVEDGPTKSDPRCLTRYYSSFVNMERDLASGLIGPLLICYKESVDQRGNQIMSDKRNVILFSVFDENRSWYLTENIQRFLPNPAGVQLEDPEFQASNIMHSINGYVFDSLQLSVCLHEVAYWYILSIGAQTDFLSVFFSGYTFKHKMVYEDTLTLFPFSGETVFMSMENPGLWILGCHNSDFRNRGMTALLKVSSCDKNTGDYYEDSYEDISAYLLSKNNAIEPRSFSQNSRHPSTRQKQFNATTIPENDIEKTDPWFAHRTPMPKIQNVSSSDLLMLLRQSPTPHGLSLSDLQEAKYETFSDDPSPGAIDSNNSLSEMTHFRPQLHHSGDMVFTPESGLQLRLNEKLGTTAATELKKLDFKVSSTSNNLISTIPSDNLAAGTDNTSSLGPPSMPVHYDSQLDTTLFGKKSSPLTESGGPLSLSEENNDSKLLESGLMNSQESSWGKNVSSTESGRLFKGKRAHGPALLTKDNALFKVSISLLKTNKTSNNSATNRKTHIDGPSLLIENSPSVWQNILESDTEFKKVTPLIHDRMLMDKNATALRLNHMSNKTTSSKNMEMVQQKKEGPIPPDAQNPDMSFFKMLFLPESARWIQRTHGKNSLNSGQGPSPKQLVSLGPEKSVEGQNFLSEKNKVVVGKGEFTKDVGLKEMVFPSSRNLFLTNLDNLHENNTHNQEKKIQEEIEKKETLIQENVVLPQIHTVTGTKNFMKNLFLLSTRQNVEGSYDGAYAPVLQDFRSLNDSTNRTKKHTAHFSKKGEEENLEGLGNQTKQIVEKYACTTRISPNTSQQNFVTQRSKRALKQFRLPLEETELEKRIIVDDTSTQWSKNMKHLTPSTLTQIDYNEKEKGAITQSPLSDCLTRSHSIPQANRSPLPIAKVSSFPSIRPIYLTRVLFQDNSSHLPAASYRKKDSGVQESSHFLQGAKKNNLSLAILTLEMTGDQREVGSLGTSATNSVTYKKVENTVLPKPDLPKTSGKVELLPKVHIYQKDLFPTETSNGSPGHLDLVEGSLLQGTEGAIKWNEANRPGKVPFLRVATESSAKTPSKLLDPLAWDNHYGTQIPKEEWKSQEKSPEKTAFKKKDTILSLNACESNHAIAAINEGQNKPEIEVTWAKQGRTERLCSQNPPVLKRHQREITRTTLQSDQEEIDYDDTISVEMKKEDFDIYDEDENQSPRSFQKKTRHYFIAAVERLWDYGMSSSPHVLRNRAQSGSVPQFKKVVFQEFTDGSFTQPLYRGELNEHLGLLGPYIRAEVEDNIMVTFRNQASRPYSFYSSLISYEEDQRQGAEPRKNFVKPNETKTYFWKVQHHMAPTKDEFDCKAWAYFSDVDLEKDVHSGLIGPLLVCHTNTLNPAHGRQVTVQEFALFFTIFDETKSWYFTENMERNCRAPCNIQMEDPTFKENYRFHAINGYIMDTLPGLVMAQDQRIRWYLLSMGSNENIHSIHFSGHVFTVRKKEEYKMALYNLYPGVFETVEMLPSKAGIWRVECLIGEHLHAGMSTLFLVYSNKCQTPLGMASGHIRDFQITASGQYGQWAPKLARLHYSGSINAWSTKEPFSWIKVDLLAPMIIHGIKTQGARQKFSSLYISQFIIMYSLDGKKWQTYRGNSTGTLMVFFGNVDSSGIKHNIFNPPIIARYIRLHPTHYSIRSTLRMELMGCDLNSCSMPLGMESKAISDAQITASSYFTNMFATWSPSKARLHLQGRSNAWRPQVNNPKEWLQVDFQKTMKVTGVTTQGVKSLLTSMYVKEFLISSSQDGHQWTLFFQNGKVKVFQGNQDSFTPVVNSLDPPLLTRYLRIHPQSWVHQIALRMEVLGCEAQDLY
T1 sequence (P00451 1668-2351 limits assumed): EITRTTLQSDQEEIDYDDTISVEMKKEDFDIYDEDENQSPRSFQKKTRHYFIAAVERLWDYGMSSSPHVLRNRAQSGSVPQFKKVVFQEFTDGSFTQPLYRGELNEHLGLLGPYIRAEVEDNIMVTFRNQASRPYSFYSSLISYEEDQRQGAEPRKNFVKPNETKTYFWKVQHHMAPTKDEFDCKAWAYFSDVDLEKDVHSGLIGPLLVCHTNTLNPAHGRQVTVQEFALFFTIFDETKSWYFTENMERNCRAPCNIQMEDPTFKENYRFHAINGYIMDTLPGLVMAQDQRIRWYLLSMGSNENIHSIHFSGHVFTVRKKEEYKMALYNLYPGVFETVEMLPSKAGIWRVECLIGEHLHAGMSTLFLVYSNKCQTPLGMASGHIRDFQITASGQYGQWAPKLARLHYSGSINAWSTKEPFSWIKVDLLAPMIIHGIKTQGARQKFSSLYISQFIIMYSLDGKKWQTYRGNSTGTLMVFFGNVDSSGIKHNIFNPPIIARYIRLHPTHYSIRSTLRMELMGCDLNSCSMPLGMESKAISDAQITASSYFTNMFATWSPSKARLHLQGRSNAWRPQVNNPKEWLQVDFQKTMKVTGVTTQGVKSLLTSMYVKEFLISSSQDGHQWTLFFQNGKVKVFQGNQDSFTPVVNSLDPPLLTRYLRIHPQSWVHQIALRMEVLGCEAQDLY
Method: A diluent control of rFVIII matrix spiked only with Milli-Q H2O was also prepared and incubated under the same conditions. Following the incubation, detergents and diluent control were diluted in 1× assay buffer along with chromogenic assay (Chromogenix COATEST SP4 FVIII Kit, Cat: 82409463) FVIII standard and controls to the appropriate levels. Thirty μL of each detergent, control, and standard were loaded onto a 96-well plate in triplicate. Chromogenic assay reagents were added according to the manufacturer's protocol and incubated at 37.0° C. and 5.0% CO2 for 8 minutes. Assay plate was measured for absorbance t 405 and 492 nm on a Molecular Devices SpectraMax M5 microplate reader. Data was analyzed using SoftMax Pro v5.
The principle of the assay involves a specific step in the blood clotting mechanism, in which Factor X is converted to Factor Xa leading to the hydrolysis of the chromogenic substrate. This reaction is dependent on the activity of Factor VIII (FVIII) and directly correlates to measurable color intensity.

PRV = assay type: cell-based, porcine pseudorabies virus
X-MuLV [6] = assay type: cell-based, xenotropic murine leukemia virus
[7] = rFVIII, 2° C., 30 min, Mega 8 1.81%, Mega 9 0.84%, Mega 10 0.20%, Mega 12 0.014% (w/v)
[8] = rFVIII, Room Temperature, 30 min, Mega 8 1.81%, Mega 9 0.45%, Mega 10 0.10%, Mega 12 0.014% (w/v)
[9] = 0.20% (w/v) Mega 10 or 0.71% (w/v) Mega 9, with or without NaCl
[10] = 0.3% (w/v), 2.0° C., 30 minutes

Row | Molecule | CMC [1] [mM] | X-MuLV inactivation (FIG. 4) (X-MuLV [2]) | X-MuLV inactivation (X-MuLV [2]; 0.5×CMC, 2° C., 30 minutes) | X-MuLV inactivation (X-MuLV [2]; 0.5×CMC, 25° C., 30 minutes) | X-MuLV inactivation (FIG. 5) (X-MuLV [2]; 2.0° C.) | Infection observed (X-MuLV [2]; [7]) | Log Reduction Factor (LRF) (X-MuLV [2]; [7]) | Infection observed (X-MuLV [2]; [8]) | Log Reduction Factor (LRF) (X-MuLV [2]; [8]) | solubilization of 5% (w/v) detergent in water [3] | BVDV inactivation (BVDV; 30 minutes) | X-MuLV inactivation (X-MuLV [4]; [9]) | X-MuLV inactivation (X-MuLV [2]; [10]) | also measured
1 | CCCCCCCC(=O)N(C)C[C@H](O)[C@@H](O)[C@H](O)[C@H](O)CO [Mega 8, octanoyl-N-methylglucamide] | 58 | completely inactivated | No significant inactivation | No significant inactivation | completely inactivated | No | ≥4.37 | No | ≥4.32 | readily solubilized in water at room temperature | – | – | – | –
2 | CCCCCCCCC(=O)N(C)C[C@H](O)[C@@H](O)[C@H](O)[C@H](O)CO [Mega 9, nonaoyl-N-methylglucamide] | 19 to 25 | completely inactivated | partially | completely | completely inactivated | No | ≥4.37 | No | ≥4.32 | readily solubilized in water at room temperature | completely inactivated | significantly inactivated | – | time to inactivate BVDV to the LOD (BVDV; 1.0% (w/v)): ≤ 30 min; BVDV titer (detection limit) (BVDV; 1.0% (w/v), 2.0±1.0° C., 30 minutes): ≤ 2.03 Log10 TCID50/mL
3 | CCCCCCCCCC(=O)N(C)C[C@H](O)[C@@H](O)[C@H](O)[C@H](O)CO [Mega 10, decanoyl-N-methylglucamide] | 6 to 7 | completely inactivated | partially | completely | completely inactivated | No | ≥4.37 | No | ≥4.32 | solubilize within 15 minutes | completely inactivated | significantly inactivated | complete X-MuLV inactivation; also recorded: inactivated X-MuLV completely | speed of BVDV inactivation (BVDV; 0.2%): immediately after mixing; effect on rFVIII activity ([5]; 2.0° C., 2 hour incubation): maintains its activity; also recorded: no effect on the activity of the protein drug; average activity of rFVIII ([5]; 2.0±1.0° C., 2 hours): 52.26 IU/mL; PRV titer (limit of detection) (PRV; 0.2 and 0.3%, 2.0±1.0° C., 15 minutes): ≤ 2.03 Log10 TCID50/mL; time to inactivate PRV to the limit of detection (PRV; 0.2 or 0.3 (w/v), 2.0° C.): ≤ 15 min; X-MuLV inactivation (X-MuLV [4]; 0.30% (w/v) M10 alone, +0.06% (w/v) Tw20, or +0.30% (w/v) TnBP, within 30 min): completely inactivated; X-MuLV titer (limit of detection) (X-MuLV [6]): ≤ 2.03 Log10 TCID50/mL; X-MuLV inactivation (X-MuLV [6]; 0.2, 0.3, 0.4% (w/v) in human IgG and human plasma protein solutions, 2.0° C., 30 minutes): completely inactivated; Infection Observed (X-MuLV [2]): No; Infection observed (X-MuLV [2]): No; LRF (X-MuLV [2]): ≥ 24.45; X-MuLV inactivation kinetics (X-MuLV [2]): immediate decrease (complete inactivation); also recorded: immediately inactivated; X-MuLV titer after treatment (limit of detection) (X-MuLV [2]): ≤ 2.03 TCID50/mL; lowest concentration to quickly and completely inactivate X-MuLV (X-MuLV [2]): approximately 0.23%; time to reach limit of detection (LOD) (X-MuLV [2]): ≤ 5 min; virus titer (X-MuLV [2]): about 2.62 Log10 TCID50/mL; virus titer (complete inactivation) (X-MuLV [2]): ≤ 2.03 Log10 TCID50/mL
4 | CCCCCCCCCCCC(=O)N(C)CC(O)C(O)C(O)C(O)CO (stereo not shown) [Mega 12, dodecanoyl-N-methylglucamide] | 0.35 | completely inactivated | No significant inactivation | No significant inactivation | completely inactivated | No | ≥4.37 | No | ≥4.32 | not able to dissolve water in a 37 °C water bath | – | – | – | solubilization of 0.15% stock in water [3]: able to come into solution when placed in a 60 °C water bath within 15 minutes
5 | P-tert-Octylphenoxy) polyethoxyethanol [Triton X-100, reference compound] | – | – | – | – | – | – | – | – | – | – | – | – | complete X-MuLV inactivation; also recorded: inactivated X-MuLV completely | X-MuLV titer after treatment (limit of detection) (X-MuLV [2]; [10]): ≤ 2.54 TCID50/mL
